Where two headings read alike, the source gives them in different places.
Key:
SFRP-1 [1] = target: T1, SFRP-1 (Homo sapiens, UniProt Q8N474); assay: Fluorescence polarization binding assay (competitive displacement of a probe compound from SFRP-1); conditions: fluorescence anisotropy, 45 nM SFRP-1, 20 nM probe;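 further: test compound competes with a fluorescent probe held by SFRP-1, seen as a drop in probe anisotropy after incubation in darkness, with anisotropy as function of rising compound dose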
T1 sequence (Q8N474 32-314): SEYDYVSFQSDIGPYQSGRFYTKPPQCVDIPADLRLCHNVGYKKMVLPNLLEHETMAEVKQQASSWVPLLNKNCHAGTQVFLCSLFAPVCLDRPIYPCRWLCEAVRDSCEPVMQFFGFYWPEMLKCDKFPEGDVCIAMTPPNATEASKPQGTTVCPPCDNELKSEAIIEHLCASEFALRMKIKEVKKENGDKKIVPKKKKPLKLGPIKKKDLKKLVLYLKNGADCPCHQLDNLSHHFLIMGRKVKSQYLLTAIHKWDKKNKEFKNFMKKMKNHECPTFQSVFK

SFRP-1 [2] = target: T1, SFRP-1; assay: Cell-based assay for in vitro measurement of SFRP-1/SARP2 antagonist activity (U2OS cells co-transfected with 16x TCF-tk-Luciferase reporter, Wnt and hSFRP-1); conditions: for fold induction at 10 µM: U2OS;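 on all read-outs here: U2OS cells co-transfected with a TCF-tk luciferase reporter, a Wnt vector, hSFRP-1 or empty vector and CMV-βgal, luciferase luminescence read in cell lysates alongside βgal activity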
[3] = read-out: Fold Induction with SFRP-1, U2OS cells, single dose 10 μM, luciferase reporter, fold induction over SFRP-1 control
[4] = read-out: Fold Induction with SFRP-1

Structure (SMILES)	IC50 (SFRP-1 [1])	EC50 (SFRP-1 [2])	fold induction at 10 µM (SFRP-1 [2]; [3])	fold induction at 10 µM (SFRP-1 [2]; [4])
CN(CCNS(=O)(=O)c1cc(S(=O)(=O)c2ccccc2)ccc1C(F)(F)F)C(=O)c1ccc(C(F)(F)F)c(F)c1 [Example 847, 3-Fluoro-N-methyl-N-[2-({[5-(phenylsulfonyl)-2-(trifluoromethyl)phenyl]sulfonyl}amino)ethyl]-4-(trifluoromethyl)benzamide]	2200 nM	–	2.4	–
COC(=O)c1ccc(C(=O)N(C)CCNS(=O)(=O)c2cc(S(=O)(=O)c3ccccc3)ccc2C(F)(F)F)cc1 [Example 848, Methyl 4-({methyl[2-({[5-(phenylsulfonyl)-2-(trifluoromethyl)phenyl]sulfonyl}amino)ethyl]amino}carbonyl)benzoate]	700 nM	1640 nM	3.6	–
CN(CCNS(=O)(=O)c1cc(S(=O)(=O)c2ccccc2)ccc1C(F)(F)F)C(=O)c1cccnc1 [Example 849, N-Methyl-N-[2-({[5-(phenylsulfonyl)-2-(trifluoromethyl)phenyl]sulfonyl}amino)ethyl]nicotinamide]	700 nM	2100 nM	3.9	–
CC(C)c1ccc(S(=O)(=O)c2ccc(F)cc2)cc1S(=O)(=O)NC1CCS(=O)(=O)CC1 [Example 858, N-(1,1-dioxidotetrahydro-2H-thiopyran-4-yl)-5-[(4-fluorophenyl)sulfonyl]-2-isopropylbenzenesulfonamide]	1400 nM	–	3.8	–
CNc1ccccc1S(=O)(=O)c1ccc(C(F)(F)F)c(S(=O)(=O)NC2CCNCC2)c1 [Example 861, 5-{[2-(methylamino)phenyl]sulfonyl}-N-piperidin-4-yl-2-(trifluoromethyl)benzenesulfonamide]	600 nM	1780 nM	4	–
CN(C)c1ccccc1S(=O)(=O)c1ccc(C(F)(F)F)c(S(=O)(=O)NC2CCNCC2)c1 [Example 862, 5-{[2-(dimethylamino)phenyl]sulfonyl}-N-piperidin-4-yl-2-(trifluoromethyl)benzenesulfonamide]	1300 nM	–	4	–
O=S(=O)(NCCc1nn[nH]n1)c1cc(S(=O)(=O)c2ccccc2)ccc1C(F)(F)F [Example 863, 5-(phenylsulfonyl)-N-[2-(2H-tetrazol-5-yl)ethyl]-2-(trifluoromethyl)benzenesulfonamide]	1800 nM	–	2.4	–
CN(CCNS(=O)(=O)c1cc(S(=O)(=O)c2ccccc2)ccc1C(F)(F)F)C(=O)NC1CCN(C(=O)OC(C)(C)C)CC1 [Example 866]	800 nM	–	4.6	–
CN(CCNS(=O)(=O)c1cc(S(=O)(=O)c2ccccc2)ccc1C(F)(F)F)C(=O)OCC(C)(C)C [Example 867, 2,2-dimethylpropyl methyl[2-({[5-(phenylsulfonyl)-2-(trifluoromethyl)phenyl]sulfonyl}amino)ethyl]carbamate]	800 nM	–	2.8	–
O=S(=O)(NCC1(O)CCCCC1)c1cc(S(=O)(=O)c2ccccc2)ccc1C(F)(F)F [Example 868, N-[(1-hydroxycyclohexyl)methyl]-5-(phenylsulfonyl)-2-(trifluoromethyl)benzenesulfonamide]	2500 nM	2130 nM	2.4	–
O=S(=O)(NC1CCNCC1)c1cc(S(=O)(=O)c2ccccc2NCCO)ccc1C(F)(F)F [Example 869, 5-({2-[(2-hydroxyethyl)amino]phenyl}sulfonyl)-N-piperidin-4-yl-2-(trifluoromethyl)benzenesulfonamide]	1200 nM	1760 nM	3.5	–
CC(C)COC(=O)N(C)CCNS(=O)(=O)c1cc(S(=O)(=O)c2ccccc2)ccc1C(F)(F)F [Example 870, isobutyl methyl[2-({[5-(phenylsulfonyl)-2-(trifluoromethyl)phenyl]sulfonyl}amino)ethyl]carbamate]	800 nM	–	2.5	–
CN(CCNS(=O)(=O)c1cc(S(=O)(=O)c2ccccc2)ccc1C(F)(F)F)C(=O)Oc1cccc(C(F)(F)F)c1 [Example 871, 3-(trifluoromethyl)phenyl methyl[2-({[5-(phenylsulfonyl)-2-(trifluoromethyl)phenyl]sulfonyl}amino)ethyl]carbamate]	600 nM	3810 nM	–	2
CN(CCNS(=O)(=O)c1cc(S(=O)(=O)c2ccccc2)ccc1C(F)(F)F)C(=O)Oc1ccc(F)cc1 [Example 872, 4-fluorophenyl methyl[2-({[5-(phenylsulfonyl)-2-(trifluoromethyl)phenyl]sulfonyl]amino)ethyl]carbamate]	600 nM	1950 nM	–	3.1
CN(CCNS(=O)(=O)c1cc(S(=O)(=O)c2ccccc2)ccc1C(F)(F)F)C(=O)Oc1ccc(Br)cc1 [Example 873, 4-bromophenyl methyl[2-({[5-(phenylsulfonyl)-2-(trifluoromethyl)phenyl]sulfonyl}amino)ethyl]carbamate]	1600 nM	–	–	2.1
CCCc1ccc(S(=O)(=O)c2ccccc2)cc1S(=O)(=O)NCCc1cccnc1 [Example 876, 5-(Phenylsulfonyl)-2-propyl-N-(2-pyridin-3-ylethyl)benzenesulfonamide]	800 nM	1360 nM	3	–

Further compounds by falling IC50 (SFRP-1 [1]), results first:

IC50 (SFRP-1 [1])	EC50 (SFRP-1 [2])	fold induction at 10 µM (SFRP-1 [2]; [3])	Structure (SMILES)	fold induction at 10 µM (SFRP-1 [2]; [4])
600 nM	1520 nM	3.5	CN(CCNS(=O)(=O)c1cc(S(=O)(=O)c2ccccc2)ccc1C(F)(F)F)C(=O)c1ccncc1 [Example 850, N-Methyl-N-[2-({[5-(phenylsulfonyl)-2-(trifluoromethyl)phenyl]sulfonyl}amino)ethyl]isonicotinamide]	–
400 nM	1510 nM	3.6	CN(CCNS(=O)(=O)c1cc(S(=O)(=O)c2ccccc2)ccc1C(F)(F)F)C(=O)c1cccnc1Cl [Example 851, 2-Chloro-N-methyl-N-[2-({[5-(phenylsulfonyl)-2-(trifluoromethyl)phenyl]sulfonyl}amino)ethyl]nicotinamide]	–
300 nM	2670 nM	3.2	CN(CCNS(=O)(=O)c1cc(S(=O)(=O)c2ccccc2)ccc1C(F)(F)F)C(=O)C1CCCCC1 [Example 846, N-methyl-N-[2-({[5-(phenylsulfonyl)-2-(trifluoromethyl)phenyl]sulfonyl}amino)ethyl]cyclohexanecarboxamide]	–
300 nM	1650 nM	3.3	CN(CCNS(=O)(=O)c1cc(S(=O)(=O)c2ccccc2)ccc1C(F)(F)F)C(=O)C(C)(C)C [Example 852, N,2,2-trimethyl-N-[2-({[5-(phenylsulfonyl)-2-(trifluoromethyl)phenyl]sulfonyl}amino)ethyl]propanamide]	–
300 nM	1800 nM	3.2	CCC(CC)C(=O)N(C)CCNS(=O)(=O)c1cc(S(=O)(=O)c2ccccc2)ccc1C(F)(F)F [Example 864, 2-ethyl-N-methyl-N-[2-({[5-(phenylsulfonyl)-2-(trifluoromethyl)phenyl]sulfonyl}amino)ethyl]butanamide]	–
300 nM	2140 nM	2.9	CCCCOC(=O)N(C)CCNS(=O)(=O)c1cc(S(=O)(=O)c2ccccc2)ccc1C(F)(F)F [Example 865, butyl methyl[2-({[5-(phenylsulfonyl)-2-(trifluoromethyl)phenyl]sulfonyl}amino)ethyl]carbamate]	–
280 nM	850 nM	3.4	CN(CCNS(=O)(=O)c1cc(S(=O)(=O)c2ccccc2)ccc1C(F)(F)F)C(=O)NC1CCNCC1 [Example 881, N-(2-{methyl[(piperidin-4-ylamino)carbonyl]amino}ethyl)-5-(phenylsulfonyl)-2-(trifluoromethyl)benzenesulfonamide]	–
150 nM	1190 nM	4.4	O=C(c1cc(Cl)nc(Cl)c1)N1CCC(NS(=O)(=O)c2cc(S(=O)(=O)c3ccccc3)ccc2C(F)(F)F)CC1 [Example 857, N-[1-(2,6-dichloroisonicotinoyl)piperidin-4-yl]-5-(phenylsulfonyl)-2-(trifluoromethyl)benzenesulfonamide]	–
100 nM	360 nM	4.2	Cc1cc(C(=O)N2CCC(NS(=O)(=O)c3cc(S(=O)(=O)c4ccccc4)ccc3C(F)(F)F)CC2)cc(Cl)n1 [Example 856, N-[1-(2-chloro-6-methylisonicotinoyl)piperidin-4-yl]-5-(phenylsulfonyl)-2-(trifluoromethyl)benzenesulfonamide]	–
40 nM	137 nM	3.4	O=C(O)c1cccc(NC(=S)N2CCC(NS(=O)(=O)c3cc(S(=O)(=O)c4ccccc4)ccc3C(F)(F)F)CC2)c1 [Example 855, 3-({[4-({[5-(phenylsulfonyl)-2-(trifluoromethyl)phenyl]sulfonyl}amino)piperidin-1-yl]carbonothioyl}amino)benzoic acid]	–
30 nM	257 nM	3.9	O=C(O)c1ccc(CCNS(=O)(=O)c2cc(S(=O)(=O)c3ccccc3)ccc2C(F)(F)F)cc1 [Example 877, 4-[2-({[5-(phenylsulfonyl)-2-(trifluoromethyl)phenyl]sulfonyl}amino)ethyl]benzoic acid]	–
